Data: article PMC3546728, “Bacterial Over-Expression and Purification of the 3′phosphoadenosine 5′phosphosulfate (PAPS) Reductase Domain of Human FAD Synthase: Functional Characterization and Homology Modeling” (International Journal of Molecular Sciences, 2012)

Assays:
6-His-Δ1-328-hFADS [1] = target: T1, 6-His-Δ1-328-hFADS (Homo sapiens, UniProt Q8NFF5); assay: absorbance spectrum of purified holoprotein; HPLC of flavin released by acid; format: binding; conditions: co-purified, tightly bound FAD, 40 mM Hepes/Na, 5 mM β-mercaptoethanol, pH 7.4
T1 construct: gene FLAD1; C-terminal PAPS reductase domain, residues 329-587; vector pH6EX3; E. coli Rosetta (DE3); theoretical 31499 Da, ~28 kDa on SDS-PAGE

6-His-Δ1-328-hFADS [2] = target: T1, 6-His-Δ1-328-hFADS; assay: fluorimetric FAD synthesis rate; format: biochemical; conditions: competitive; data not shown

T1 sequence (Q8NFF5 329-587, stated change not applied): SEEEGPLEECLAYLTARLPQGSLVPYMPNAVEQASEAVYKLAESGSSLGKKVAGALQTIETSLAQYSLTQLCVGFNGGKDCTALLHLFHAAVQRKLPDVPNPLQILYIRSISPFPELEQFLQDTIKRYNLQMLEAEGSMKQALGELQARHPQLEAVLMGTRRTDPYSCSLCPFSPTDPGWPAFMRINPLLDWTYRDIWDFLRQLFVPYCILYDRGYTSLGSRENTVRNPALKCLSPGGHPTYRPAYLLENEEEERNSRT

SMILES	FAD/protein monomer ratio (6-His-Δ1-328-hFADS [1])	fluorimetric FAD synthesis rate (6-His-Δ1-328-hFADS [2])
Cc1cc2nc3c(=O)[nH]c(=O)nc-3n(C[C@H](O)[C@H](O)[C@H](O)COP(=O)(O)OP(=O)(O)OC[C@H]3O[C@@H](n4cnc5c(N)ncnc54)[C@H](O)[C@@H]3O)c2cc1C [FAD]	demonstrates that the bound cofactor is FAD with a FAD/protein monomer ratio	–
Nc1nc2c(ncn2[C@@H]2O[C@H](COP(=O)(O)OP(=O)(O)O)[C@@H](O)[C@H]2O)c(=O)[nH]1 [GDP]	–	no significant changes were found in competitive inhibition by GDP (data not shown)
